Measurements from ChEMBL document CHEMBL5532639, “Heterocyclic pyrimidine derivatives as promising antibacterial agents” (Eur J Med Chem, 2023).
Converted amounts (≈) assume the structure as drawn. Blank lines part the entries; values can stand above or below the compound they belong to.

Assays:
Pseudomonas aeruginosa [1] = test: Antibacterial activity against Pseudomonas aeruginosa assessed as reduction in microbial growth by measuring zone of inhibition; assay type: functional
Bacillus subtilis [2] = test: Antibacterial activity against Bacillus subtilis assessed as reduction in microbial growth by measuring zone of inhibition; assay type: functional
Escherichia coli [3] = test: Antibacterial activity against Escherichia coli assessed as reduction in microbial growth by measuring zone of inhibition; assay type: functional
Staphylococcus aureus [4] = test: Antibacterial activity against Staphylococcus aureus assessed as reduction in microbial growth by measuring zone of inhibition; assay type: functional
Salmonella typhimurium [5] = test: Antibacterial activity against Salmonella typhimurium DT104 assessed as reduction in bacterial growth; assay type: functional, Salmonella enterica subsp. enterica serovar Typhimurium; conditions: Salmonella enterica
Escherichia coli [6] = test: Antibacterial activity against Escherichia coli ATCC 25922 assessed as bacterial growth inhibition; assay type: functional
Staphylococcus aureus [7] = test: Antibacterial activity against Staphylococcus aureus ATCC 3750 assessed as reduction in bacterial growth; assay type: functional
Bacillus subtilis [8] = test: Antibacterial activity against Bacillus subtilis 6633 assessed as reduction in bacterial growth; assay type: functional
Escherichia coli [9] = test: Antimicrobial activity against Escherichia coli RCMB 010052 assessed as bacterial growth inhibition by measuring zone of inhibition at 50 ug/ml by agar cup diffusion assay; assay type: functional; conditions: read-out: IZ
Streptococcus pneumoniae = test: Antimicrobial activity against Streptococcus […] assessed as bacterial growth inhibition by measuring zone of inhibition at 50 ug/ml by agar cup diffusion assay; assay type: functional; conditions: read-out: IZ
Bacillus subtilis [10] = test: Antimicrobial activity against Bacillus subtilis RCMB 010069 assessed as bacterial growth inhibition by measuring zone of inhibition at 50 ug/ml by agar cup diffusion assay; assay type: functional; conditions: read-out: IZ
Bacillus subtilis [11] = test: Antibacterial activity against Bacillus subtilis ATCC 465 assessed as reduction in bacterial growth measured after 24 hrs by Mueller-Hinton broth assay; assay type: functional
Staphylococcus aureus [12] = test: microbe, parasite or virus in culture; conditions: ATCC 25923, 24 h
Description: Antibacterial activity against Staphylococcus aureus ATCC 25923 assessed as reduction in bacterial growth measured after 24 hrs by Mueller-Hinton broth assay

Staphylococcus aureus [13] = test: Antibacterial activity against Staphylococcus aureus assessed as bacterial growth inhibition by measuring zone of inhibition at 50 ug/ml by agar cup diffusion assay; assay type: functional; conditions: read-out: IZ
Escherichia coli [14] = test: Antibacterial activity against Escherichia coli assessed as bacterial growth inhibition by measuring zone of inhibition at 50 ug/ml by agar cup diffusion assay; assay type: functional; conditions: read-out: IZ
Salmonella typhimurium [15] = test: Antibacterial activity against Salmonella typhimurium DT104 assessed as bacterial growth inhibition by measuring zone of inhibition at 50 ug/ml by agar cup diffusion assay; assay type: functional, Salmonella enterica subsp. enterica serovar Typhimurium; conditions: Salmonella enterica, read-out: IZ
Bacillus subtilis [16] = test: Antibacterial activity against Bacillus subtilis assessed as bacterial growth inhibition by measuring zone of inhibition at 50 ug/ml by agar cup diffusion assay; assay type: functional; conditions: read-out: IZ
Bacillus subtilis [17] = test: Antibacterial activity against Bacillus subtilis assessed as zone of inhibition at 20 mg/ml; assay type: functional; conditions: read-out: IZ
Sarcina = test: Antibacterial activity against Sarcina assessed as zone of inhibition at 20 mg/ml; assay type: functional; conditions: read-out: IZ
Staphylococcus aureus [18] = test: Antibacterial activity against Staphylococcus aureus assessed as zone of inhibition at 20 mg/ml; assay type: functional; conditions: read-out: IZ
Escherichia coli [19] = test: Antibacterial activity against Escherichia coli assessed as zone of inhibition at 20 mg/ml; assay type: functional; conditions: read-out: IZ
Serratia marcescens = test: Antibacterial activity against Serratia marcescens assessed as zone of inhibition at 20 microg/ml; assay type: functional; conditions: read-out: IZ
Pseudomonas aeruginosa [20] = test: Antibacterial activity against Pseudomonas aeruginosa assessed as inhibition of microbial growth by broth micro-dilution method; assay type: functional
Escherichia coli [21] = test: Antibacterial activity against Escherichia coli assessed as inhibition of microbial growth by broth micro-dilution method; assay type: functional
Staphylococcus aureus [22] = test: Antibacterial activity against Staphylococcus aureus assessed as inhibition of microbial growth by broth micro-dilution method; assay type: functional
Streptococcus pyogenes = test: Antibacterial activity against Streptococcus pyogenes assessed as inhibition of microbial growth by broth micro-dilution method; assay type: functional

Compound: O=[N+]([O-])c1ccc(Nc2nc(SCc3ccccc3)ncc2I)cc1
inhibition zone (IZ) (Pseudomonas aeruginosa [1]): 10 mm
inhibition zone (IZ) (Bacillus subtilis [2]): 14 mm
inhibition zone (IZ) (Escherichia coli [3]): 5 mm
inhibition zone (IZ) (Staphylococcus aureus [4]): 16 mm

MIC (Salmonella typhimurium [5]): 5 µg/mL (≈ 12.4 µM)
MIC (Escherichia coli [6]): 6 µg/mL (≈ 14.8 µM)
MIC (Staphylococcus aureus [7]): 4 µg/mL (≈ 9.89 µM)
MIC (Bacillus subtilis [8]): 4 µg/mL (≈ 9.89 µM)
Compound: Cc1nc2scc(-c3ccco3)c2c(=O)n1/N=C/c1ccc(Cl)cc1Cl

Compound: Nc1nc2ncnn2c(-c2ccc(Br)cc2)c1C(=O)c1ccc(C(=O)O)cc1
zone of inhibition at 50 µg/mL (Escherichia coli [9]): 18.3 mm
zone of inhibition at 50 µg/mL (Streptococcus pneumoniae): 21.3 mm
zone of inhibition at 50 µg/mL (Bacillus subtilis [10]): 28.9 mm

Compound: O=C1OC(c2ccc(C(=O)O)cc2)N=C1/C=C/c1ccc(C(=O)c2cccs2)cc1 (centres undefined)
zone of inhibition at 50 µg/mL (Escherichia coli [9]): 17.9 mm
zone of inhibition at 50 µg/mL (Streptococcus pneumoniae): 18.6 mm
zone of inhibition at 50 µg/mL (Bacillus subtilis [10]): 22.3 mm

Compound: O=C1OC(c2ccc(C(=O)O)cc2)N=C1/C=C/c1ccc(C(=O)c2ccco2)cc1 (centres undefined)
zone of inhibition at 50 µg/mL (Escherichia coli [9]): 16.7 mm
zone of inhibition at 50 µg/mL (Streptococcus pneumoniae): 19.3 mm
zone of inhibition at 50 µg/mL (Bacillus subtilis [10]): 21.2 mm

MIC (Salmonella typhimurium [5]): 5 µg/mL (≈ 12.6 µM)
MIC (Escherichia coli [6]): 7 µg/mL (≈ 17.7 µM)
MIC (Staphylococcus aureus [7]): 6 µg/mL (≈ 15.1 µM)
MIC (Bacillus subtilis [8]): 5 µg/mL (≈ 12.6 µM)
Compound: Cc1nc2scc(-c3ccco3)c2c(=O)n1NC(=O)c1ccc([N+](=O)[O-])cc1

MIC (Bacillus subtilis [11]): 2 µg/mL (≈ 7.16 µM)
MIC (Staphylococcus aureus [12]): 8 µg/mL (≈ 28.6 µM)
Compound: N#Cc1nc2[nH]c(=O)[nH]c(=O)c2c(-c2ccccc2)c1N

Compound: O=C(CSc1nnc(-c2cccnc2N2CCOCC2)o1)Nc1nc(-c2ccc(Cl)cc2)cc(-c2cc(F)c(Cl)cc2Cl)n1
zone of inhibition at 50 µg/mL (Staphylococcus aureus [13]): 13 mm
zone of inhibition at 50 µg/mL (Escherichia coli [14]): 10 mm
zone of inhibition at 50 µg/mL (Salmonella typhimurium [15]): 9 mm
zone of inhibition at 50 µg/mL (Bacillus subtilis [16]): 10 mm

Compound: Cc1ccc(-c2cc(-c3cc(F)c(Cl)cc3Cl)nc(NC(=O)CSc3nnc(-c4cccnc4N4CCOCC4)o3)n2)cc1
zone of inhibition at 50 µg/mL (Staphylococcus aureus [13]): 11 mm
zone of inhibition at 50 µg/mL (Escherichia coli [14]): 12 mm
zone of inhibition at 50 µg/mL (Salmonella typhimurium [15]): 10 mm
zone of inhibition at 50 µg/mL (Bacillus subtilis [16]): 8 mm

Compound: CSc1c(C#N)c(N)nc2c(/N=N/c3ccc(S(=O)(=O)Nc4ncccn4)cc3)c(=O)[nH]n12
zone of inhibition at 20000 µg/mL (Bacillus subtilis [17]): 9 mm
zone of inhibition at 20000 µg/mL (Sarcina): 12 mm
zone of inhibition at 20000 µg/mL (Staphylococcus aureus [18]): 9 mm
zone of inhibition at 20000 µg/mL (Escherichia coli [19]): 15 mm
zone of inhibition at 20 µg/mL (Serratia marcescens): 15 mm

MIC (Salmonella typhimurium [5]): 12 µg/mL (≈ 31.5 µM)
MIC (Escherichia coli [6]): 12 µg/mL (≈ 31.5 µM)
MIC (Staphylococcus aureus [7]): 11 µg/mL (≈ 28.9 µM)
MIC (Bacillus subtilis [8]): 11 µg/mL (≈ 28.9 µM)
Compound: Cc1nc2scc(-c3ccco3)c2c(=O)n1/N=C/c1ccc([N+](=O)[O-])cc1

MIC (Salmonella typhimurium [5]): 6 µg/mL (≈ 14.3 µM)
MIC (Escherichia coli [6]): 6 µg/mL (≈ 14.3 µM)
MIC (Staphylococcus aureus [7]): 5 µg/mL (≈ 11.9 µM)
MIC (Bacillus subtilis [8]): 4 µg/mL (≈ 9.52 µM)
Compound: Cc1nc2scc(-c3ccco3)c2c(=O)n1NC(=O)c1ccc(Cl)cc1Cl

MIC (Salmonella typhimurium [5]): 6 µg/mL (≈ 16.2 µM)
MIC (Escherichia coli [6]): 5 µg/mL (≈ 13.5 µM)
MIC (Staphylococcus aureus [7]): 5 µg/mL (≈ 13.5 µM)
MIC (Bacillus subtilis [8]): 4 µg/mL (≈ 10.8 µM)
Compound: Cc1nc2scc(-c3ccco3)c2c(=O)n1/N=C/c1ccc(F)cc1F

Compound: Oc1ccccc1/C=N/Nc1nc(SCc2ccccc2)ncc1I
inhibition zone (IZ) (Pseudomonas aeruginosa [1]): 18 mm
inhibition zone (IZ) (Bacillus subtilis [2]): 13 mm
inhibition zone (IZ) (Escherichia coli [3]): 7 mm
inhibition zone (IZ) (Staphylococcus aureus [4]): 15 mm

Compound: O=C(CSc1nnc(-c2cccnc2N2CCOCC2)o1)Nc1nc(-c2ccc(Cl)cc2Cl)cc(-c2cc(F)c(Cl)cc2Cl)n1
zone of inhibition at 50 µg/mL (Staphylococcus aureus [13]): 13 mm
zone of inhibition at 50 µg/mL (Escherichia coli [14]): 12 mm
zone of inhibition at 50 µg/mL (Salmonella typhimurium [15]): 12 mm
zone of inhibition at 50 µg/mL (Bacillus subtilis [16]): 9 mm

Compound: O=C1OC(c2ccc(C(=O)O)cc2)N=C1/C=C/c1ccc(C(=O)c2ccc(Cl)cc2)cc1 (centres undefined)
zone of inhibition at 50 µg/mL (Escherichia coli [9]): 18.2 mm
zone of inhibition at 50 µg/mL (Streptococcus pneumoniae): 21.8 mm
zone of inhibition at 50 µg/mL (Bacillus subtilis [10]): 24.3 mm

Compound: O=C(CSc1nnc(-c2cccnc2N2CCOCC2)o1)Nc1nc(-c2ccc(F)cc2)cc(-c2cc(F)c(Cl)cc2Cl)n1
zone of inhibition at 50 µg/mL (Staphylococcus aureus [13]): 11 mm
zone of inhibition at 50 µg/mL (Escherichia coli [14]): 11 mm

Compound: Clc1ccc(/C=N/Nc2nc(SCc3ccccc3)ncc2I)cc1
inhibition zone (IZ) (Pseudomonas aeruginosa [1]): 18 mm
inhibition zone (IZ) (Bacillus subtilis [2]): 10 mm
inhibition zone (IZ) (Escherichia coli [3]): 8 mm
inhibition zone (IZ) (Staphylococcus aureus [4]): 10 mm

MIC (Pseudomonas aeruginosa [20]): 50 µg/mL
MIC (Escherichia coli [21]): 62.5 µg/mL
MIC (Staphylococcus aureus [22]): 100 µg/mL
MIC (Streptococcus pyogenes): 100 µg/mL
Compound: COc1ccc(-c2cc(-c3ccc(Oc4ccccc4)cc3)nc(SCC(=O)Nc3nc4ccc(S(=O)(=O)O)cc4s3)n2)cc1
